Biological target: WDR5 (Homo sapiens, UniProt P61964)
Assay: Competition-based fluorescence polarization anisotropy assay
Details: binding to WDR5; displacement of FITC-labeled small molecule probe (analogous to Example J2 or HCH-25) or peptide probe FITC-AHx-SEEEIDVVSV; pH 6.0; Ki converted from IC50
In short: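 Ki values derive from displacement of either a fluorescent small-molecule probe or a FITC-peptide probe from WDR5, monitored by fluorescence polarization. Assay run at pH 6.0 in 200 mM phosphate with 300 mM NaCl, 0.5 mM TCEP and 0.1% Chaps.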

Row | Compound | Ki [nM]
1 | COc1ccc(Br)cc1S(=O)(=O)Nc1cc(Cl)cc(C(=O)NC2CCOCC2)c1O [Example J52, 3-((5-Bromo-2-methoxyphenyl)sulfonamido)-5-chloro-2-hydroxy-N-(tetrahydro-2H-pyran-4-yl)benzamide] | 3950
2 | O=C(O)c1c(O)c(NS(=O)(=O)c2cc(Br)cc(Cl)c2O)cc(C2CC2)c1F [Example J118, 3-((5-Bromo-3-chloro-2-hydroxyphenyl)sulfonamido)-5-cyclopropyl-6-fluoro-2-hydroxybenzoic acid] | 350
3 | COc1ccc(Br)cc1S(=O)(=O)Nc1cc(C2(C#N)CCC2)cc(C(=O)O)c1O [Example J205, 3-((5-Bromo-2-methoxyphenyl)sulfonamido)-5-(1-cyanocyclobutyl)-2-hydroxybenzoic acid] | 50
4 | O=C(NCCN1CCOCC1)c1cc(C2CC2)cc(NS(=O)(=O)c2cc(Br)ccc2O)c1F [Example J143, 3-((5-Bromo-2-hydroxyphenyl)sulfonamido)-5-cyclopropyl-2-fluoro-N-(2-morpholinoethyl)benzamide] | 2540
5 | O=S(=O)(Nc1cc(C2CC2)cc(S(=O)(=O)C2CCCO2)c1)c1cc(Br)ccc1O (centres unmarked) [Example S15-2] | 8620
6 | N#CC1(c2cc(NS(=O)(=O)c3cc(Br)cc(Cl)c3O)c(O)c(C(N)=O)c2)CCCCC1 [Example J235, 3-((5-Bromo-3-chloro-2-hydroxyphenyl)sulfonamido)-5-(1-cyanocyclohexyl)-2-hydroxybenzamide] | 80
7 | CNC(=O)c1cc(F)cc(NS(=O)(=O)c2cc(Br)ccc2O)c1O [Example J109, 3-((5-Bromo-2-hydroxyphenyl)sulfonamido)-5-fluoro-2-hydroxy-N-methylbenzamide] | 3470
8 | N#CC1(c2cc(NS(=O)(=O)c3cc(Br)ccc3O)c(O)c(C(=O)NCCO)c2)CCC1 [Example J228, 3-((5-Bromo-2-hydroxyphenyl)sulfonamido)-5-(1-cyanocyclobutyl)-2-hydroxy-N-(2-hydroxyethyl)benzamide] | 370
9 | O=C(O)c1cc(Cl)cc(NS(=O)(=O)c2cc(Br)cc(F)c2O)c1O [Example J5, 3-((5-Bromo-3-fluoro-2-hydroxyphenyl)sulfonamido)-5-chloro-2-hydroxybenzoic acid] | 340
10 | 2-Bromo-N-(5-chloro-2-hydroxy-3-nitrophenyl)-4-ethyl-5-hydroxybenzenesulfonamide [NE3] | 60
11 | COCCNC(=O)c1cc(OC(F)(F)F)cc(NS(=O)(=O)c2cc(Br)ccc2O)c1O [Example J163, 3-((5-Bromo-2-hydroxyphenyl)sulfonamido)-2-hydroxy-N-(2-methoxyethyl)-5-(trifluoromethoxy)benzamide] | 570
12 | O=C(NCCN1CCOCC1)c1cc(NS(=O)(=O)c2cc(Br)cc(Cl)c2O)cc(C2CC2)c1F [Example J153, 5-((5-Bromo-3-chloro-2-hydroxyphenyl)sulfonamido)-3-cyclopropyl-2-fluoro-N-(2-morpholinoethyl)benzamide] | 440
13 | NC(=O)c1cc(C2CC2)cc(NS(=O)(=O)c2cc(Br)cc([N+](=O)[O-])c2O)c1O [Example J104, 3-((5-Bromo-2-hydroxy-3-nitrophenyl)sulfonamido)-5-cyclopropyl-2-hydroxybenzamide] | 610
14 | O=C(NCC1CCCO1)c1cc(OC(F)(F)F)cc(NS(=O)(=O)c2cc(Br)ccc2O)c1O (centres unmarked) [Example J165, 3-((5-Bromo-2-hydroxyphenyl)sulfonamido)-2-hydroxy-N-((tetrahydrofuran-2-yl)methyl)-5-(trifluoromethoxy)benzamide] | 420
15 | O=C(NCC1CCOC1)c1cc(OC(F)(F)F)cc(NS(=O)(=O)c2cc(Br)ccc2O)c1O (centres unmarked) [Example J166, 3-((5-Bromo-2-hydroxyphenyl)sulfonamido)-2-hydroxy-N-((tetrahydrofuran-3-yl)methyl)-5-(trifluoromethoxy)benzamide] | 680
16 | COc1cc(Cl)c(Br)cc1S(=O)(=O)Nc1cc(C2CC2)cc(C(=O)O)c1O [Example J71, 3-((5-Bromo-4-chloro-2-methoxyphenyl)sulfonamido)-5-cyclopropyl-2-hydroxybenzoic acid] | 2720
17 | O=C(NC1COC1)c1cc(NS(=O)(=O)c2cc(Br)ccc2O)cc(C2CC2)c1F [Example J138, 5-((5-Bromo-2-hydroxyphenyl)sulfonamido)-3-cyclopropyl-2-fluoro-N-(oxetan-3-yl)benzamide] | 4750
18 | CNC(=O)c1cc(C2(C#N)CCC2)cc(NS(=O)(=O)c2cc(Br)cc(Cl)c2O)c1O [Example J211, 3-((5-Bromo-3-chloro-2-hydroxyphenyl)sulfonamido)-5-(1-cyanocyclobutyl)-2-hydroxy-N-methylbenzamide] | 50
19 | NC(=O)c1cc(C2CC2)cc(NS(=O)(=O)c2cc(Br)cc(Cl)c2O)c1O [Example J94, 3-((5-Bromo-3-chloro-2-hydroxyphenyl)sulfonamido)-5-cyclopropyl-2-hydroxybenzamide] | 400
20 | O=C(NCCO)c1cc(C2CC2)cc(NS(=O)(=O)c2cc(Br)ccc2O)c1O [Example J87, 3-((5-Bromo-2-hydroxyphenyl)sulfonamido)-5-cyclopropyl-2-hydroxy-N-(2-hydroxyethyl)benzamide] | 590
21 | CNC(=O)c1cc(Cl)cc(NS(=O)(=O)c2cc(Br)cc(Cl)c2O)c1O [Example J40, 3-((5-Bromo-3-chloro-2-hydroxyphenyl)sulfonamido)-5-chloro-2-hydroxy-N-methylbenzamide] | 240
22 | O=C(O)c1c(O)c(NS(=O)(=O)c2cc(Br)cc(F)c2O)cc(C2CC2)c1F [Example J119, 3-((5-Bromo-3-fluoro-2-hydroxyphenyl)sulfonamido)-5-cyclopropyl-6-fluoro-2-hydroxybenzoic acid] | 130

Other lines, results leading:

Row | Ki [nM] | Compound
23 | 800 | CS(=O)(=O)c1cc(Cl)cc(NS(=O)(=O)c2cc(Br)cc(Cl)c2O)c1F [Example S54, 5-Bromo-3-chloro-N-(5-chloro-2-fluoro-3-(methylsulfonyl)phenyl)-2-hydroxybenzenesulfonamide]
24 | 510 | O=C(NC1CC(O)C1)c1cc(OC(F)(F)F)cc(NS(=O)(=O)c2cc(Br)ccc2O)c1O (mixture of isomers) [HCH-3, 3-((5-Bromo-2-hydroxyphenyl)sulfonamido)-2-hydroxy-N-(3-hydroxycyclobutyl)-5-(trifluoromethoxy)benzamide]
25 | 140 | O=C(NC1COC1)c1cc(OC(F)(F)F)cc(NS(=O)(=O)c2cc(Br)cc(Cl)c2O)c1O [HCH-54, 3-((5-Bromo-3-chloro-2-hydroxyphenyl)sulfonamido)-2-hydroxy-N-(oxetan-3-yl)-5-(trifluoromethoxy)benzamide]
26 | 610 | O=C(O)c1cc(Br)cc(S(=O)(=O)Nc2cc(Cl)cc([N+](=O)[O-])c2O)c1O [NE12]
27 | 830 | CN(C)CCCS(=O)(=O)c1cc(Cl)cc(NS(=O)(=O)c2cc(Br)ccc2O)c1 [Example S52, 5-Bromo-N-(3-chloro-5-((3-(dimethylamino)propyl)sulfonyl)phenyl)-2-hydroxybenzenesulfonamide]
28 | 290 | COc1ccc(Br)cc1S(=O)(=O)Nc1cc(Cl)cc(S(C)(=O)=O)c1O [Example S49, 5-Bromo-N-(5-chloro-2-hydroxy-3-(methylsulfonyl)phenyl)-2-methoxybenzenesulfonamide]
29 | 380 | O=C(NC1COC1)c1cc(OC(F)(F)F)cc(NS(=O)(=O)c2cc(Br)ccc2O)c1O [HCH-9, 3-((5-Bromo-2-hydroxyphenyl)sulfonamido)-2-hydroxy-N-(oxetan-3-yl)-5-(trifluoromethoxy)benzamide]
30 | 5050 | COc1ccc(Cl)cc1S(=O)(=O)Nc1cc(Cl)cc([N+](=O)[O-])c1O [NE2, 5-Chloro-N-(5-chloro-2-hydroxy-3-nitrophenyl)-2-methoxybenzenesulfonamide]
31 | 130 | CCc1cc(Br)cc(S(=O)(=O)Nc2cc(OC(F)(F)F)cc(C(=O)O)c2O)c1O [HCH-14, 3-((5-Bromo-3-ethyl-2-hydroxyphenyl)sulfonamido)-2-hydroxy-5-(trifluoromethoxy)benzoic acid]
32 | 40 | N#CC1(c2cc(NS(=O)(=O)c3cc(Br)cc4cccnc34)c(O)c(C(=O)O)c2)CCC1 [SN-6, 3-((6-bromoquinoline)-8-sulfonamido)-5-(1-cyanocyclobutyl)-2-hydroxybenzoic acid]
33 | 110 | CCCc1cc(Br)cc(S(=O)(=O)Nc2cc(OC(F)(F)F)cc(C(=O)O)c2O)c1O [HCH-16, 3-((5-Bromo-2-hydroxy-3-propylphenyl)sulfonamido)-2-hydroxy-5-(trifluoromethoxy)benzoic acid]
34 | 360 | NS(=O)(=O)c1cc(Cl)cc(NS(=O)(=O)c2cc(Br)cc(Cl)c2O)c1O [Example S27, 5-Bromo-3-chloro-N-(5-chloro-2-hydroxy-3-sulfamoylphenyl)-2-hydroxybenzenesulfonamide]
35 | 350 | CCc1cc(Br)cc(S(=O)(=O)Nc2cc(OC(F)(F)F)cc(C(=O)NCC(O)CC)c2O)c1O (centres unmarked) [HCH-40, 3-((5-Bromo-3-ethyl-2-hydroxyphenyl)sulfonamido)-2-hydroxy-N-(2-hydroxybutyl)-5-(trifluoromethoxy)benzamide]
36 | 730 | CN1CCN(CCNS(=O)(=O)c2cc(Cl)cc(NS(=O)(=O)c3cc(Br)cc(Cl)c3O)c2O)CC1 [Example S33, 5-Bromo-3-chloro-N-(5-chloro-2-hydroxy-3-(N-(2-(4-methylpiperazin-1-yl)ethyl)sulfamoyl)phenyl)-2-hydroxybenzenesulfonamide]
37 | 120 | CC(O)(CNC(=O)c1cc(OC(F)(F)F)cc(NS(=O)(=O)c2cc(Br)cc(Cl)c2O)c1O)C1CC1 (centres unmarked) [HCH-51, 3-((5-Bromo-3-chloro-2-hydroxyphenyl)sulfonamido)-N-(2-cyclopropyl-2-hydroxypropyl)-2-hydroxy-5-(trifluoromethoxy)benzamide]
38 | 510 | CCN(CC)CCSc1cc(Cl)cc(NS(=O)(=O)c2cc(Br)cc(Cl)c2O)c1 [Example S34, 5-Bromo-3-chloro-N-(3-chloro-5-((2-(diethylamino)ethyl)thio)phenyl)-2-hydroxybenzenesulfonamide]

Source: patent US12398097B2, “WDR5-MYC inhibitors” (Vanderbilt University, priority 2019, dated 2025)
